Experimental data from patent US8680052B1, “Methods of treating, reducing the incidence of, and/or preventing ischemic events” (The Medicines Company, priority 2013, dated 2014).
Like-named read-outs stand apart in the source and are kept apart here.

Tested on: patients with acute coronary syndromes undergoing PCI
[1] = 48-hour, MITT Without STEMI, cangrelor vs clopidogrel
[2] = 48-hour, MITT Without STEMI, exploratory
[3] = 48 hours, ITT With STEMI, Cangrelor vs Clopidogrel
[4] = 48 hours, ITT Without STEMI, Cangrelor vs Clopidogrel
[5] = 48 hours, ITT, Cangrelor vs Clopidogrel
[6] = 48 hours, MITT With STEMI, Cangrelor vs Clopidogrel
[7] = 48 hours, MITT Without STEMI, Cangrelor vs Clopidogrel
[8] = 48 hours, MITT, Cangrelor vs Clopidogrel

Protocol: Patients were eligible for enrollment if they had stable angina, unstable angina, or non-ST-segment elevation (NSTE) MI with obstructive coronary artery disease and were scheduled to undergo PCI.
The infusion began within 30 minutes prior to PCI and continued for at least 2 hours or until the conclusion of the index procedure, whichever was longer. At the treating physician's discretion, the infusion could be continued for 4 hours.
All patients received aspirin 75-325 mg per local site standards. Adjunctive anticoagulants (unfractionated heparin, low molecular weight heparin, bivalirudin, or fondaparinux) and the procedural use of glycoprotein IIb/IIIa inhibitors were determined by the treating physician.
The primary efficacy endpoint was the 48-hour composite of all-cause mortality, MI, or ischemia-driven revascularization. Prespecified secondary efficacy endpoints included the composite of mortality or MI at 48 hours and 30 days; the composite of mortality, MI, or ischemia-driven revascularization at 30 days; the components of the composite endpoints at 48 hours and 30 days; stroke at 48 hours; abrupt closure, threatened abrupt closure, need for urgent coronary artery bypass grafting, or unsuccessful procedure during the index PCI; acute (24 hours) and 48 hours stent thrombosis; and all-cause mortality at 6 months and 1 year.
Rates of MI and ischemia-driven revascularization up to 30 days following the index procedure were assessed. Ischemia-driven revascularization was defined as symptoms of myocardial ischemia leading to urgent (within 24 hours of the last episode of ischemia) revascularization, which must have occurred after the index procedure concluded (i.e., guidewire removal). New electrocardiographic changes, acute pulmonary edema, ventricular arrhythmias, or hemodynamic instability could also constitute evidence of ischemia.
MI was defined by a new Q wave (duration >0.03 seconds) in two contiguous electrocardiographic leads or elevations in creatine kinase (CK) and CK-MB, including a rise of CK-MB≧3 times the local upper limit or normal and, when biomarkers were elevated prior to PCI, an additional 50% above baseline. One baseline troponin measurement was required for patients undergoing urgent PCI. Measurements of CK-MB were obtained at 2, 10, 17, and 24 hours post-PCI.
The primary efficacy analysis was to be determined in the modified intent-to-treat (mITT) population, defined as all randomized patients (excluding STEMI cohort) who received at least one dose of study drug and underwent the index PCI. The safety population consisted of all randomized patients who received any study drug. Patients in the safety analyses were assigned to a treatment arm based on treatment received, not as randomized.

## CSCCNc1nc(SCCC(F)(F)F)nc2c1ncn2[C@@H]1O[C@H](COP(=O)(O)OP(=O)(O)C(Cl)(Cl)P(=O)(O)O)[C@@H](O)[C@H]1O [Cangrelor, cangrelor]
48-hour, MITT Without STEMI
  All-cause mortality: 8 (0.2)
  IDR: 13 (0.3)
  MI: 278 (7.1)
  Mortality/MI/IDR (primary endpoint): 290 (7.5)
  Q-wave MI: 4 (0.1)
  Stent thrombosis: 7 (0.2)
  Stroke: 6 (0.2)
[1]
  OR (95% CI): All-cause mortality: 1.59 (0.52, 4.87)
  OR (95% CI): IDR: 0.56 (0.28, 1.11)
  OR (95% CI): MI: 1.09 (0.91, 1.29)
  OR (95% CI): Mortality/Q-wave MI/IDR: 0.67 (0.39, 1.14)
  OR (95% CI): Mortality/Q-wave MI/Stent thrombosis: 0.78 (0.42, 1.44)
  OR (95% CI): Q-wave MI: 0.40 (0.12, 1.27)
  OR (95% CI): Stent thrombosis: 0.63 (0.25, 1.63)
  OR (95% CI): Stroke: 0.85 (0.29, 2.54)
[2]
  Mortality/Q-wave MI/IDR: 23 (0.6)
  Mortality/Q-wave MI/Stent thrombosis: 18 (0.5)
48 hours, ITT
  All-cause mortality: 9 (0.2) no. (%)
  IDR: 21 (0.5) no. (%)
  MI: 294 (6.7) no. (%)
  Mortality/MI/IDR: 312 (7.1) no. (%)
  Mortality/Q-wave MI/IDR: 32 (0.7) no. (%)
  Mortality/Q-wave MI/Stent thrombosis: 23 (0.5) no. (%)
  Q-wave MI: 4 (0.1) no. (%)
  Stent thrombosis: 11 (0.2) no. (%)
  Stroke: 6 (0.1) no. (%)
48 hours, ITT With STEMI
  All-cause mortality: 1 (0.2) no. (%)
  IDR: 6 (1.2) no. (%)
  MI: 16 (3.3) no. (%)
  Mortality/MI/IDR: 20 (4.1) no. (%)
  Mortality/Q-wave MI/IDR: 7 (1.5) no. (%)
  Mortality/Q-wave MI/Stent thrombosis: 5 (1.0) no. (%)
  Q-wave MI: 0 (0.0) no. (%)
  Stent thrombosis: 4 (0.8) no. (%)
  Stroke: 0 (0.0) no. (%)
[3]
  All-cause mortality OR (95% CI): 0.209 (0.024, 1.793)
  IDR OR (95% CI): 0.786 (0.271, 2.283)
  MI OR (95% CI): 1.900 (0.831, 4.341)
  Mortality/MI/IDR OR (95% CI): 1.054 (0.560, 1.985)
  Mortality/Q-wave MI/IDR OR (95% CI): 0.560 (0.222, 1.416)
  Mortality/Q-wave MI/Stent thrombosis OR (95% CI): 0.580 (0.193, 1.743)
  Stent thrombosis OR (95% CI): 1.052 (0.262, 4.321)
48 hours, ITT Without STEMI
  All-cause mortality: 8 (0.2) no. (%)
  IDR: 15 (0.4) no. (%)
  MI: 278 (7.1) no. (%)
  Mortality/MI/IDR: 292 (7.4) no. (%)
  Mortality/Q-wave MI/IDR: 25 (0.6) no. (%)
  Mortality/Q-wave MI/Stent thrombosis: 18 (0.5) no. (%)
  Q-wave MI: 4 (0.1) no. (%)
  Stent thrombosis: 7 (0.2) no. (%)
  Stroke: 6 (0.2) no. (%)
[4]
  All-cause mortality OR (95% CI): 1.331 (0.461, 3.839)
  IDR OR (95% CI): 0.649 (0.338, 1.246)
  MI OR (95% CI): 1.090 (0.914, 1.299)
  Mortality/MI/IDR OR (95% CI): 1.056 (0.890, 1.252)
  Mortality/Q-wave MI/IDR OR (95% CI): 0.711 (0.425, 1.190)
  Mortality/Q-wave MI/Stent thrombosis OR (95% CI): 0.747 (0.405, 1.379)
  Q-wave MI OR (95% CI): 0.398 (0.125, 1.272)
  Stent thrombosis OR (95% CI): 0.634 (0.246, 1.638)
  Stroke OR (95% CI): 0.855 (0.287, 2.546)
[5]
  All-cause mortality OR (95% CI): 0.821 (0.340, 1.983)
  IDR OR (95% CI): 0.678 (0.389, 1.182)
  MI OR (95% CI): 1.122 (0.945, 1.331)
  Mortality/MI/IDR OR (95% CI): 1.058 (0.898, 1.248)
  Mortality/Q-wave MI/IDR OR (95% CI): 0.667 (0.425, 1.045)
  Mortality/Q-wave MI/Stent thrombosis OR (95% CI): 0.698 (0.409, 1.191)
  Q-wave MI OR (95% CI): 0.401 (0.126, 1.279)
  Stent thrombosis OR (95% CI): 0.735 (0.337, 1.603)
  Stroke OR (95% CI): 0.752 (0.261, 2.170)
48 hours, MITT
  All-cause mortality: 9 (0.2) no. (%)
  IDR: 19 (0.4) no. (%)
  MI: 292 (6.7) no. (%)
  Mortality/MI/IDR: 308 (7.1) no. (%)
  Mortality/Q-wave MI/IDR: 30 (0.7) no. (%)
  Mortality/Q-wave MI/Stent thrombosis: 23 (0.5) no. (%)
  Q-wave MI: 4 (0.1) no. (%)
  Stent thrombosis: 11 (0.3) no. (%)
  Stroke: 6 (0.1) no. (%)
48 hours, MITT With STEMI
  All-cause mortality: 1 (0.2) no. (%)
  IDR: 6 (1.3) no. (%)
  MI: 14 (3.1) no. (%)
  Mortality/MI/IDR: 18 (4.0) no. (%)
  Mortality/Q-wave MI/IDR: 7 (1.6) no. (%)
  Mortality/Q-wave MI/Stent thrombosis: 5 (1.1) no. (%)
  Q-wave MI: 0 (0.0) no. (%)
  Stent thrombosis: 4 (0.9) no. (%)
  Stroke: 0 (0.0) no. (%)
[6]
  All-cause mortality OR (95% CI): 0.249 (0.028, 2.235)
  IDR OR (95% CI): 0.857 (0.286, 2.571)
  MI OR (95% CI): 1.778 (0.739, 4.282)
  Mortality/MI/IDR OR (95% CI): 1.064 (0.541, 2.092)
  Mortality/Q-wave MI/IDR OR (95% CI): 0.632 (0.243, 1.645)
  Mortality/Q-wave MI/Stent thrombosis OR (95% CI): 0.622 (0.202, 1.917)
  Stent thrombosis OR (95% CI): 1.002 (0.249, 4.033)
48 hours, MITT Without STEMI
  All-cause mortality: 8 (0.2) no. (%)
  IDR: 13 (0.3) no. (%)
  MI: 278 (7.1) no. (%)
  Mortality/MI/IDR (Prespecified primary endpoint): 290 (7.5) no. (%)
  Mortality/Q-wave MI/IDR: 23 (0.6) no. (%)
  Mortality/Q-wave MI/Stent thrombosis: 18 (0.5) no. (%)
  Q-wave MI: 4 (0.1) no. (%)
  Stent thrombosis: 7 (0.2) no. (%)
  Stroke: 6 (0.2) no. (%)
  primary composite of all-cause mortality, MI, or ischemia-driven revascularization: 7.5%
[7]
  All-cause mortality OR (95% CI): 1.591 (0.520, 4.869)
  IDR OR (95% CI): 0.560 (0.283, 1.108)
  MI OR (95% CI): 1.085 (0.910, 1.294)
  Mortality/MI/IDR (Prespecified primary endpoint) OR (95% CI): 1.048 (0.883, 1.243)
  Mortality/Q-wave MI/IDR OR (95% CI): 0.670 (0.394, 1.140)
  Mortality/Q-wave MI/Stent thrombosis OR (95% CI): 0.777 (0.419, 1.442)
  Q-wave MI OR (95% CI): 0.397 (0.124, 1.267)
  Stent thrombosis OR (95% CI): 0.632 (0.245, 1.631)
  Stroke OR (95% CI): 0.852 (0.286, 2.536)
[8]
  All-cause mortality OR (95% CI): 0.995 (0.394, 2.508)
  IDR OR (95% CI): 0.628 (0.353, 1.118)
  MI OR (95% CI): 1.107 (0.932, 1.315)
  Mortality/MI/IDR OR (95% CI): 1.049 (0.889, 1.238)
  Mortality/Q-wave MI/IDR OR (95% CI): 0.661 (0.416, 1.051)
  Mortality/Q-wave MI/Stent thrombosis OR (95% CI): 0.737 (0.429, 1.265)
  Q-wave MI OR (95% CI): 0.397 (0.125, 1.268)
  Stent thrombosis OR (95% CI): 0.729 (0.334, 1.588)
  Stroke OR (95% CI): 0.852 (0.286, 2.538)
48 hours, Safety population
  All-cause mortality: 9 (0.2) no. (%)
  IDR: 19 (0.4) no. (%)
  MI: 294 (6.7) no. (%)
  Mortality/MI/IDR: 310 (7.1) no. (%)
  Mortality/Q-wave MI/IDR: 30 (0.7) no. (%)
  Mortality/Q-wave MI/Stent thrombosis: 23 (0.5) no. (%)
  Q-wave MI: 4 (0.1) no. (%)
  Stent thrombosis: 11 (0.3) no. (%)
  Stroke: 6 (0.1) no. (%)
30 days, ITT
  All-cause mortality: 40 (0.9) no. (%)
  IDR: 62 (1.4) no. (%)
  MI: 318 (7.3) no. (%)
  Mortality/MI/IDR: 381 (8.7) no. (%)
  Mortality/Q-wave MI/IDR: 102 (2.3) no. (%)
  Mortality/Q-wave MI/Stent thrombosis: 68 (1.6) no. (%)
  Q-wave MI: 9 (0.2) no. (%)
